Measured values as given in patent publication US4778799A, “Synergistic combination of flupirtin and non-steroidal antiphlogistic” (priority 1985, dated 1988).
Structures can show the parent of a compound that is named as a salt. Where two headings read alike, the source gives them in different places.

Legend:
[1] = Acetic Acid-Writhing Test according to Koster et al., analgetic activity, per os; assay type: in vivo, white mouse (NMRI-Mouse); design: ED50: unit: mg/kg; details: for inhibition in vivo at 3 mg/kg: 3.0 mg/kg per os; for inhibition in vivo at 6 mg/kg: 6.0 mg/kg per os; for factor for the increase in activity of the analgetic action in combination with Flupirtin: compared to analgetic side activity component of the pure antiphlogistic; for ED50: substance alone, 30 minutes after giving, linear regression; for inhibition in vivo at 5 mg/kg: 5.0 mg/kg per os; for inhibition in vivo at 10 mg/kg: 10.0 mg/kg per os; for minimal effective dose: read-out: lowest analgetically effective dosage
Method: These investigations were carried out in the Acetic Acid Test (Writhing Test) on the white mouse.
Writhing According to Koster et al; Fed.
(§1) Animal: White Mouse (NMRI-Mouse); Application: per os
Writhing Test According to Koster et al.: Fed.
as §1
The pain reaction is expressed as a characteristic stretching of the animals ("writhing syndrome") which persists in irregular time intervals for a long period of time after the injection of the acetic acid. The dosage dependent suppression of the frequency of the stretching motion compared to an untreated control group is expressed in percent as analgetic effect. The evaluation is carried out by determination of the ED50 (Method of Linear Regression).
The acetic acid test is marked by the fact that not only is there detectable the effect of strong, central acting analgetics but also preponderantly peripherally acting analgetics-antipyretics and antiphlogistically active pharmaceuticals such as phenyl butazone, Indometacin and others. Therewith the effect in this procedure refers to a peripheral component of the analgesic.

[2] = Randall-Selitto Test, inflammation pain, per os; assay type: in vivo, albino rat (Sprague-Dawley); details: for ED50: Rattus norvegicus, po, 0.5 h
Method: Randall-Selitto-Test According to Randall, Selitto, Arch. int.
Animal: Albino-Rat (Sprague-Dawley); Application: per os
Sucker, Fuchs, Speiser, Pharmazeutische Technologie, Thieme-Verlag, Stuttgart, 1978. Short Description of the Pharmacological Test Methods Mentioned in the Application Randall-Selitto-Test (Inflammation Pain on the Rat)
In accordance with the method of Randall and Selitto (L. O. Randall, J. J. Selitto, Arch. int. Pharmacodyn., Volume 111, pages 409-418, 1957) rats were injected subplantarly with […] of a 20% (in dimineralized water) brewer's yeast suspension in the right hind paw. 21/2 hours later the test materials were dispensed and 30 minutes later the swelling pain measured with an Algesiemeter as pressure (in grams) on the inflamed paw (apparatus of Ugo Basile, Milan, Italy). As criteria there are considered the defensive reaction of the animals drawing the paw away and/or freeing themselves from the grip of the experimenters. The effect of the material was determined from the increase of the swelling pain compared to the untreated control group. The experimental procedure different from the original method in that the materials were applied 21/2 hours after the setting of edema and not simultaneously therewith. In this way there should be prevented the development of edema, being checked by a possible antiphlogistic action and the analgesy superimposed or simulated.
The ED50 was determined by means of the method of linear regression.

[3] = antiphlogistic alone, per os, mouse; cited from earlier work
[4] = Ulcerogenic effect (stomach mucosa erosion) 24 hours after single oral dispensation; assay type: in vivo, albino rat (Sprague-Dawley); details: 24 mg/kg Diclofenac alone per os
Method: Testing of Ulcerogenic Effect Relying On the Method of Jahn and Adrian (Arzneimittelforschung, Volume 19 (1969) pages 36-52)
The experimental animals are male albino rats which are maintained under the usual conditions at 21°-22° C. After 48 hours of qualified feeding the test materials were dispensed perorally an increasing dosages. The animals were killed 24 hours later and the stomachs investigated for ulcerogenic changes according to the method of Munchow, Arzneimittelforschung, Volume 4 (1954), pages 341-344. (The size of the ulcers formed is measured are classified according to Munchow.)

[5] = Bradykinin-Edema Test, antiphlogistic activity, per os; assay type: in vivo, albino rat (Sprague-Dawley); details: alone; for ED50: per os, printed in words: no ED50 defineable
Method: Bradykinin-Edema-Test Relying On and Modification of the Method of
Morsdorf et al (Arch. int. Pharmacodyn. 192,111-127 (1971). Animal:
Albino-rat (Sprague-Dawley):
Relying on the modification of the method of Morsdorf et al (Arch. int. Pharmacodyn. Volume 192, pages 111-127 (1971)) male rats received subplantarly in the right hind paw an injection of a 1% carrageenin solution (Carrageenin, Type IV, Sigma C-3889). One hour and four hours later there was determined the volume of the paw. To measure the volume there was used a volume meter (Rhema-Labortechnik Company, D-6238 Hofheim, Type 2060). Directly after the first measurement the test substance was dispensed by means of a gullet stomach catheter. There was calculated the increase in the swelling of the paw in the second measurement compared to the first measurement in absolute values (ml). The evaluation included the determination of the percent average value of the difference of the edema volumes one and four hours after receiving the inflammatory solution. The edema inhibiting action was calculated in percent from the edema volume measured by water displacement in comparison to the edema volume of the untreated inflammed control group.
As the single change in comparison to the Carrageenin-Edema Test in place of Carrageenin there was injected subplantarly Bradykinin (Sigma B 3259) 0.01 mg/animal in 0.1 ml of a 0.9% sodium chloride solution.

[6] = Mus musculus, po, 0.5 h, per os, read-out: ED50
[7] = Mus musculus, po, alone, 4.0 mg/kg per os, read-out: Activity in %
[8] = alone, per os, 30 minutes after giving, linear regression, read-out: ED50
[9] = Mus musculus, po, 0.5 h, per os
[10] = Mus musculus, po, read-out: Activity in %

COc1ccc2cc([C@H](C)C(=O)O)ccc2c1 [Naproxen]
inhibition in vivo at 0.38 mg/kg ([1]; Mus musculus, po, alone, 0.38 mg/kg per os): 21.7% | inhibition in vivo at 0.75 mg/kg ([1]; Mus musculus, po, alone, 0.75 mg/kg per os): 42% | inhibition in vivo at 1.5 mg/kg ([1]; Mus musculus, po, alone, 1.5 mg/kg per os): 43.4% | inhibition in vivo at 3 mg/kg ([1]; Mus musculus, po, alone): 53.8% | inhibition in vivo at 6 mg/kg ([1]; Mus musculus, po, alone): 70% | inhibition in vivo at 12 mg/kg ([1]; Mus musculus, po, alone, 12.0 mg/kg per os): 74.1% | inhibition in vivo at 24 mg/kg ([1]; Mus musculus, po, alone, 24.0 mg/kg per os): 54.5% | factor for the increase in activity of the analgetic action in combination with Flupirtin [1]: 2-15

Cc1cc(NC(=O)C2=C(O)c3ccccc3S(=O)(=O)N2C)no1 [Isoxicam]
ED50 [1, 6]: 6.6 mg/kg | inhibition in vivo at 3 mg/kg ([1]; Mus musculus, po, alone): 10.1% | inhibition in vivo at 4 mg/kg [1, 7]: 30.2% | inhibition in vivo at 5 mg/kg ([1]; Mus musculus, po, alone): 36.7% | inhibition in vivo at 6 mg/kg ([1]; Mus musculus, po, alone): 46% | inhibition in vivo at 7 mg/kg ([1]; Mus musculus, po, alone, 7.0 mg/kg per os): 51.1% | inhibition in vivo at 8 mg/kg ([1]; Mus musculus, po, alone, 8.0 mg/kg per os, read-out: Activity in %): 62.6% | inhibition in vivo at 10 mg/kg ([1]; Mus musculus, po, alone): 66.2% | factor for the increase in activity of the analgetic action in combination with Flupirtin [1]: 2-15

CCOC(=O)Nc1ccc(NCc2ccc(F)cc2)nc1N [Flupirtin, 2-amino-3-carbethoxyamino-6-(fluoro-benzylamino)-pyridine]
ED50 [1, 6]: 44 mg/kg | minimal effective dose ([1]; Mus musculus, po, alone, per os): 2.24 mg/kg

COc1ccc2c(c1)c(CC(=O)O)c(C)n2C(=O)c1ccc(Cl)cc1 [Indometacin]
ED50 [2, 8]: 2.77 mg/kg | Activity in % ([2]; alone, 1.0 mg/kg per os): 12.3% | Activity in % ([2]; alone, 2.0 mg/kg per os): 22.05% | Activity in % ([2]; alone, 4.0 mg/kg per os): 58.97% | Activity in % ([2]; alone, 8.0 mg/kg per os): 114.87% | Activity in % ([2]; alone, 16.0 mg/kg per os): 127.18% | LD50 [3]: 21 mg/kg | ED50 [1, 9]: 4.3 mg/kg | inhibition in vivo at 2 mg/kg [1, 10]: 17.3% | inhibition in vivo at 4 mg/kg [1, 10]: 50% | inhibition in vivo at 8 mg/kg [1, 10]: 86.3% | inhibition in vivo at 16 mg/kg [1, 10]: 82.1% | factor for the increase in activity of the analgetic action in combination with Flupirtin [1]: 2-15

CCOC(=O)Nc1ccc(NCc2ccc(F)cc2)nc1N [Flupirtin (Gluconate)]
ED50 [1, 9]: 43.9 mg/kg | inhibition in vivo at 0.56 mg/kg [1, 10]: 19.2% | inhibition in vivo at 1.12 mg/kg [1, 10]: 28% | inhibition in vivo at 2.24 mg/kg [1, 10]: 37.6% | inhibition in vivo at 4.47 mg/kg [1, 10]: 46.4% | inhibition in vivo at 8.93 mg/kg [1, 10]: 38.4% | inhibition in vivo at 17.85 mg/kg [1, 10]: 22.4% | inhibition in vivo at 35.7 mg/kg [1, 10]: 61.6%

CN1C(C(=O)Nc2ccccn2)=C(O)c2ccccc2S1(=O)=O [Piroxicam]
LD50 [3]: 350 mg/kg | ED50 [1, 6]: 3.46 mg/kg | inhibition in vivo at 1 mg/kg ([1]; Mus musculus, po, alone, 1.0 mg/kg per os): 38.2% | inhibition in vivo at 3 mg/kg ([1]; Mus musculus, po, alone): 40% | inhibition in vivo at 4 mg/kg [1, 7]: 53.6% | inhibition in vivo at 5 mg/kg ([1]; Mus musculus, po, alone): 61.8% | inhibition in vivo at 10 mg/kg ([1]; Mus musculus, po, alone): 70.9% | inhibition in vivo at 20 mg/kg ([1]; Mus musculus, po, alone, 20.0 mg/kg per os): 49.1% | factor for the increase in activity of the analgetic action in combination with Flupirtin [1]: 2-15

O=C(O)Cc1ccccc1Nc1c(Cl)cccc1Cl [Diclofenac]
ED50 [2, 8]: 2.95 mg/kg | Activity in % ([2]; alone, 1.0 mg/kg per os): 20.99% | Activity in % ([2]; alone, 3.0 mg/kg per os): 32.60% | Activity in % ([2]; alone, 10.0 mg/kg per os): 100.55% | Activity in % ([2]; alone, 30.0 mg/kg per os): 135.36% | ED50 [1, 9]: 12 mg/kg | inhibition in vivo at 3.9 mg/kg [1, 10]: 33.3% | inhibition in vivo at 7.8 mg/kg [1, 10]: 50% | inhibition in vivo at 15.6 mg/kg [1, 10]: 45.8% | inhibition in vivo at 31.25 mg/kg [1, 10]: 66% | inhibition in vivo at 62.5 mg/kg [1, 10]: 67.4% | inhibition in vivo at 125 mg/kg [1, 10]: 91.7% | minimal effective dose ([1]; Mus musculus, po): 3.9 mg/kg | ED50 ([1]; per os, 30 min): 12.1 mg/kg | ulcerogenic effect (stomach mucosa erosion) [4]: erosion of the stomach mucosa | Activity in % (- = inhibiting) ([5]; 1.0 mg/kg per os): +2.9% | Activity in % (- = inhibiting) ([5]; 3.0 mg/kg per os): +8.6% | Activity in % (- = inhibiting) ([5]; 9.0 mg/kg per os): -31.4% | Activity in % (- = inhibiting) ([5]; 27.0 mg/kg per os): -45.7% | ED50 [5]: No ED50

COc1ccc2c(c1)c(CC(=O)N[C@@H](C=O)[C@@H](O)[C@H](O)[C@H](O)CO)c(C)n2C(=O)c1ccc(Cl)cc1 [Glucametacin]
factor for the increase in activity of the analgetic action in combination with Flupirtin [1]: 2-15

CC1=C(CC(=O)O)c2cc(F)ccc2/C1=C\c1ccc([S+](C)[O-])cc1 (stereo not drawn) [Sulindac]
ED50 [1, 6]: 2.3 mg/kg | inhibition in vivo at 0.47 mg/kg [1, 10]: 29.6% | inhibition in vivo at 0.94 mg/kg [1, 10]: 44.6% | inhibition in vivo at 1.88 mg/kg [1, 10]: 49.7% | inhibition in vivo at 3.75 mg/kg [1, 10]: 56% | inhibition in vivo at 7.5 mg/kg [1, 10]: 61% | inhibition in vivo at 15 mg/kg [1, 10]: 71.1% | inhibition in vivo at 30 mg/kg [1, 10]: 72.3% | factor for the increase in activity of the analgetic action in combination with Flupirtin [1]: 2-15

CCOC(=O)Nc1ccc(NCc2ccc(F)cc2)nc1N [Flupirtin (Hydrochloride)]
ED50 [2]: 30.9 mg/kg | Activity in % ([2]; alone, 10.0 mg/kg per os): -8.3% | Activity in % ([2]; alone, 20.0 mg/kg per os): 23.2% | Activity in % ([2]; alone, 30.0 mg/kg per os): 45.8% | Activity in % ([2]; alone, 40.0 mg/kg per os): 67.5% | Activity in % (- = inhibiting) ([5]; 5.0 mg/kg per os): +4.6% | Activity in % (- = inhibiting) ([5]; 10.0 mg/kg per os): -25.0% | Activity in % (- = inhibiting) ([5]; 20.0 mg/kg per os): -13.6% | Activity in % (- = inhibiting) ([5]; 30.0 mg/kg per os): -2.3% | ED50 [5]: no ED50

CC(=O)Oc1ccccc1C(=O)O [Acetylsalicylic Acid, acetylsalicylic acid]
LD50 [3]: 815 mg/kg | ED50 [1, 9]: 149 mg/kg | inhibition in vivo at 25 mg/kg [1, 10]: 11% | inhibition in vivo at 50 mg/kg [1, 10]: 30.1% | inhibition in vivo at 75 mg/kg [1, 10]: 39% | inhibition in vivo at 100 mg/kg [1, 10]: 41.1% | inhibition in vivo at 150 mg/kg [1, 10]: 43.2% | inhibition in vivo at 200 mg/kg [1, 10]: 59.6% | inhibition in vivo at 400 mg/kg [1, 10]: 71.2% | factor for the increase in activity of the analgetic action in combination with Flupirtin [1]: 2-15
